Experimental data reported in patent US20180282275A1, “New alkynyl-substituted 3-phenylpyrrolidine-2,4-diones and use thereof as herbicides” (Bayer CropScience Aktiengesellschaft, priority 2015, published 2018).

Key:
Assay type in all cases: in vivo
Alopecurus myosuroides [1] = assay: Post-emergence herbicidal effect, greenhouse pot test; conditions: 504 h, 80 g a.i./ha, one-leaf stage, visual score after about 3 weeks, 100% = plants have died, read-out: Herbicidal effect against [%] ALOMY
Method: (§1) [table] Seeds of monocotyledonous and dicotyledonous weed and crop plants are laid out in sandy loam in wood-fibre pots, covered with soil and cultivated in a greenhouse under good growth conditions. 2 to 3 weeks after sowing, the test plants are treated at the one-leaf stage. The compounds according to the invention, formulated in the form of wettable powders (WP) or as emulsion concentrates (EC), are then sprayed as aqueous suspension or emulsion at a water application rate of 600 to 800 l/ha (converted) with the addition of 0.2% of wetting agent onto the green parts of the plants. After the test plants have been left to stand in the greenhouse under optimal growth conditions for about 3 weeks, the action of the preparations is assessed visually in comparison to untreated controls (herbicidal action in percent (%): 100% activity=the plants have died, 0% activity=like control plants).

Lolium rigidium [2] = assay: as above; conditions: 80 g a.i./ha, one-leaf stage, visual score after about 3 weeks, 100% = plants have died
Method: as §1

Echinochloa crus-galli [3] = assay: as above; conditions: 504 h, 80 g a.i./ha, one-leaf stage, visual score after about 3 weeks, 100% = plants have died, read-out: Herbicidal effect against [%] ECHCG
Method: as §1

Hordeum murinum [4] = assay: as above; conditions: 80 g a.i./ha, one-leaf stage, visual score after about 3 weeks, 100% = plants have died
Method: as §1

Stellaria media = assay: as above; conditions: 80 g a.i./ha, one-leaf stage, visual score after about 3 weeks, 100% = plants have died
Method: as §1

Avena fatua [5] = assay: as above; conditions: 80 g a.i./ha, one-leaf stage, visual score after about 3 weeks, 100% = plants have died
Method: as §1

Setaria viridis [6] = assay: as above; conditions: 504 h, 80 g a.i./ha, one-leaf stage, visual score after about 3 weeks, 100% = plants have died, read-out: Herbicidal effect against [%] SETVI
Method: as §1

Alopecurus myosuroides [7] = assay: Pre-emergence herbicidal effect, greenhouse pot test; conditions: 504 h, 320 g a.i./ha, visual score after 3 weeks, 100% = plants have died, 0% = like control, read-out: Herbicidal effect against [%] ALOMY
Source text: (§2) Seeds of monocotyledonous and dicotyledonous weed plants and crop plants are laid out in wood-fibre pots in sandy loam and covered with soil. The compounds according to the invention formulated in the form of wettable powders (WP) or as emulsion concentrates (EC) are then applied as aqueous suspension or emulsion at a water application rate of 600 to 800 l/ha (converted) with the addition of 0.2% wetting agent to the surface of the covering soil. After the treatment, the pots are placed in a greenhouse and kept under good growth conditions for the trial plants. The damage to the test plants is scored visually after a test period of 3 weeks by comparison with untreated controls (herbicidal activity in percent (%): 100% activity=the plants have died, 0% activity=like control plants). [table]

Lolium rigidium [8] = assay: as above; conditions: 320 g a.i./ha, visual score after 3 weeks, 100% = plants have died, 0% = like control
Source text: as §2

Echinochloa crus-galli [9] = assay: as above; conditions: 504 h, 320 g a.i./ha, visual score after 3 weeks, 100% = plants have died, 0% = like control, read-out: Herbicidal effect against [%] ECHCG
Source text: as §2

Hordeum murinum [10] = assay: as above; conditions: 320 g a.i./ha, visual score after 3 weeks, 100% = plants have died, 0% = like control
Source text: as §2

Avena fatua [11] = assay: as above; conditions: 504 h, 320 g a.i./ha, visual score after 3 weeks, 100% = plants have died, 0% = like control, read-out: Herbicidal effect against [%] AVEFA
Source text: as §2

Setaria viridis [12] = assay: as above; conditions: 504 h, 320 g a.i./ha, visual score after 3 weeks, 100% = plants have died, 0% = like control, read-out: Herbicidal effect against [%] SETVI
Source text: as §2

Cyperus esculentus = assay: as above; conditions: 320 g a.i./ha, visual score after 3 weeks, 100% = plants have died, 0% = like control
Source text: as §2

Lolium multiflorum = assay: as above; conditions: 320 g a.i./ha, visual score after 3 weeks, 100% = plants have died, 0% = like control
Source text: as §2

SMILES	pest or weed control at 80 g/ha (Alopecurus myosuroides [1])	Herbicidal effect against [%] LOLRI (Lolium rigidium [2])	pest or weed control at 80 g/ha (Echinochloa crus-galli [3])	Herbicidal effect against [%] HORMU (Hordeum murinum [4])	Herbicidal effect against [%] STEME (Stellaria media)	Herbicidal effect against [%] AVEFA (Avena fatua [5])	pest or weed control at 80 g/ha (Setaria viridis [6])	pest or weed control at 320 g/ha (Alopecurus myosuroides [7])	Herbicidal effect against [%] LOLRI (Lolium rigidium [8])	pest or weed control at 320 g/ha (Echinochloa crus-galli [9])	Herbicidal effect against [%] HORMU (Hordeum murinum [10])	pest or weed control at 320 g/ha (Avena fatua [11])	pest or weed control at 320 g/ha (Setaria viridis [12])	Herbicidal effect against [%] CYPES (Cyperus esculentus)	Herbicidal effect against [%] LOLMU (Lolium multiflorum)
CC#Cc1cc(C)c(C2=C(OC(=O)OCC)C3(CCC(OCC)CC3)NC2=O)c(C)c1 (single isomer, unassigned) [Example P5]	80 to 100%	100%	80 to 100%	100%	100%	100%	80 to 100%	80 to 100%	100%	80 to 100%	100%	80 to 100%	80 to 100%	100%	–
CC#Cc1cc(C)c(C2=C(OC(=O)OCC)C3(CCC(OCC)CC3)NC2=O)c(C)c1 (single isomer, unassigned) [Example P6]	–	100%	–	80%	20%	90%	–	–	100%	–	90%	–	–	90%	–
CC#Cc1cc(C)c(C2=C(O)C3(CCC(OCC)CC3)NC2=O)c(CC)c1 (stereo not shown) [Example D4]	80 to 100%	100%	80 to 100%	100%	10%	100%	80 to 100%	80 to 100%	100%	80 to 100%	100%	80 to 100%	80 to 100%	70%	–
CC#Cc1cc(C)c(C2=C(O)C3(CCC(OCC)CC3)NC2=O)c(C)c1 (stereo not shown) [Example D6]	80 to 100%	100%	80 to 100%	100%	90%	100%	80 to 100%	80 to 100%	100%	80 to 100%	100%	–	80 to 100%	100%	–
CC#Cc1cc(C)c(C2=C(O)C3(CCC(OCC)CC3)NC2=O)c(C)c1 (stereo not shown) [Example D7]	–	100%	–	60%	20%	100%	–	–	100%	–	100%	–	–	–	–
CCc1cc(C#CC2CC2)cc(C)c1C1=C(O)C2(CCC(OC)CC2)NC1=O (stereo not shown) [Example D10]	90 to 100%	–	90 to 100%	–	–	–	90 to 100%	80 to 100%	–	80 to 100%	–	80 to 100%	80 to 100%	–	100%
COC1CCC2(CC1)NC(=O)C(c1c(C)cc(C#CC3CC3)cc1C)=C2O (stereo not drawn) [Example D11, cis-3-[4-(Cyclopropylethynyl)-2,6-dimethylphenyl]-4-hydroxy-8-methoxy-1-azaspiro[4.5]dec-3-en-2-one]	90 to 100%	–	90 to 100%	–	–	–	90 to 100%	80 to 100%	–	80 to 100%	–	80 to 100%	80 to 100%	–	100%
CC#Cc1cc(C)c(C2=C(OC(=O)OC)C3(CCC(OCC)CC3)NC2=O)c(C)c1 (stereo not shown) [Example P7]	80 to 100%	100%	80 to 100%	100%	100%	100%	80 to 100%	80 to 100%	100%	80 to 100%	100%	80 to 100%	80 to 100%	100%	–
CC#Cc1cc(C)c(C2=C(OC(=O)C(C)C)C3(CCC(OCC)CC3)NC2=O)c(C)c1 (stereo not shown) [Example P8]	80 to 100%	100%	80 to 100%	100%	60%	100%	80 to 100%	80 to 100%	100%	80 to 100%	100%	80 to 100%	80 to 100%	100%	–
CC#Cc1cc(C)c(C2=C(OC(=O)OCC)C3(CCC(OCC)CC3)NC2=O)c(CC)c1 (stereo not shown) [Example P9]	–	100%	–	100%	40%	100%	–	–	100%	–	100%	–	–	60%	–
CC#Cc1cc(C)c(C2=C(OC(=O)OCC)C3(CCC(OCC)CC3)NC2=O)c(CC)c1 (stereo not shown) [Example P10]	80 to 100%	100%	80 to 100%	100%	10%	90%	80 to 100%	80 to 100%	100%	80 to 100%	90%	80 to 100%	80 to 100%	–	–
CCOC(=O)OC1=C(c2c(C)cc(C#CC3CC3)cc2CC)C(=O)NC12CCC(OC)CC2 (stereo not shown) [Example P14]	90 to 100%	–	90 to 100%	–	–	–	90 to 100%	80 to 100%	–	80 to 100%	–	80 to 100%	80 to 100%	–	100%
CCc1cc(C#CC2CC2)cc(C)c1C1=C(OC(=O)C(C)C)C2(CCC(OC)CC2)NC1=O (stereo not shown) [Example P15]	90 to 100%	–	90 to 100%	–	–	–	90 to 100%	80 to 100%	–	80 to 100%	–	80 to 100%	80 to 100%	–	100%
CC#Cc1cc(C)c(C2=C(O)C3(CCC(OCC)CC3)NC2=O)c(C)c1 (stereo not shown) [Example S3]	–	100%	–	100%	100%	100%	–	–	100%	–	100%	–	–	80%	–
CC#Cc1cc(C)c(C2=C(O)C3(CCC(OCC)CC3)NC2=O)c(CC)c1 (stereo not shown) [Example S4]	–	100%	–	100%	10%	100%	–	–	100%	–	100%	–	–	60%	–
